Laboratory results as given in PubChem BioAssay AID248 (DTP/NCI, 2004).
Values joined by “and” are separate entries in the source; they are usually repeats but may differ in a detail not shown here. Identical values can stand only once. Toxic doses and inconclusive results are not listed. Cut-off read from the data, not from the text of the source: active = T/C of 150% or more; inactive = T/C below 125%. Peptide text beside a SMILES is read from it. * marks the point of attachment. Bn = c1ccc(C*)cc1; For = O=C*

Test system: L1210 leukemia ip in BDF1 mice, survival T/C
Assay: NCI In Vivo Anticancer Drug Screen. Data for tumor model L1210 Leukemia (intraperitoneal) in B6D2F1 (BDF1) mice
Conditions: endpoint: mean survival time, higher = longer survival
Outline: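 Tumor cells were implanted, animals were treated, and survival was followed. The result divides the treated measurement by the vehicle-control measurement.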

[1] = dose: 100.0 mg/kg/injection, schedule: Q01DX001 (ip), vehicle: saline
[2] = dose: 200.0 mg/kg/injection, schedule: Q01DX001 (ip), vehicle: saline
[3] = dose: 400.0 mg/kg/injection, schedule: Q01DX001 (ip), vehicle: saline
[4] = dose: 25.0 mg/kg/injection, schedule: Q01DX009 (ip), vehicle: saline
[5] = dose: 50.0 mg/kg/injection, schedule: Q01DX001 (ip), vehicle: saline
[6] = dose: 50.0 mg/kg/injection, schedule: Q01DX009 (ip), vehicle: saline
[7] = dose: 100.0 mg/kg/injection, schedule: Q01DX009 (ip), vehicle: saline
[8] = dose: 100.0 mg/kg/injection, schedule: Q01DX009 (ip), vehicle: saline with Tween-80
[9] = dose: 100.0 mg/kg/injection, schedule: Q04DX003 (ip), vehicle: saline with Tween-80
[10] = dose: 200.0 mg/kg/injection, schedule: Q01DX009 (ip), vehicle: saline with Tween-80
[11] = dose: 200.0 mg/kg/injection, schedule: Q04DX003 (ip), vehicle: saline with Tween-80
[12] = dose: 400.0 mg/kg/injection, schedule: Q01DX009 (ip), vehicle: saline with Tween-80
[13] = dose: 400.0 mg/kg/injection, schedule: Q04DX003 (ip), vehicle: saline with Tween-80
[14] = dose: 100.0 mg/kg/injection, schedule: Q01DX009 (ip), vehicle: Klucel (hydroxypropylcellulose) (HPC)
[15] = dose: 100.0 mg/kg/injection, schedule: Q04DX003 (ip), vehicle: Klucel (hydroxypropylcellulose) (HPC)
[16] = dose: 200.0 mg/kg/injection, schedule: Q01DX009 (ip), vehicle: Klucel (hydroxypropylcellulose) (HPC)
[17] = dose: 200.0 mg/kg/injection, schedule: Q04DX003 (ip), vehicle: Klucel (hydroxypropylcellulose) (HPC)
[18] = dose: 400.0 mg/kg/injection, schedule: Q01DX009 (ip), vehicle: Klucel (hydroxypropylcellulose) (HPC)
[19] = dose: 400.0 mg/kg/injection, schedule: Q04DX003 (ip), vehicle: Klucel (hydroxypropylcellulose) (HPC)
[20] = dose: 75.0 mg/kg/injection, schedule: Q01DX001 (ip), vehicle: carboxymethylcellulose (CMC)
[21] = dose: 150.0 mg/kg/injection, schedule: Q01DX001 (ip), vehicle: carboxymethylcellulose (CMC)
[22] = dose: 75.0 mg/kg/injection, schedule: Q04DX003 (ip), vehicle: saline
[23] = dose: 150.0 mg/kg/injection, schedule: Q04DX003 (ip), vehicle: saline
[24] = dose: 200.0 mg/kg/injection, schedule: Q01DX009 (ip), vehicle: saline
[25] = dose: 300.0 mg/kg/injection, schedule: Q04DX003 (ip), vehicle: saline
[26] = dose: 400.0 mg/kg/injection, schedule: Q01DX009 (ip), vehicle: saline
[27] = dose: 100.0 mg/kg/injection, schedule: Q04DX003 (ip), vehicle: saline
[28] = dose: 200.0 mg/kg/injection, schedule: Q04DX003 (ip), vehicle: saline
[29] = dose: 400.0 mg/kg/injection, schedule: Q04DX003 (ip), vehicle: saline
[30] = dose: 100.0 mg/kg/injection, schedule: Q01DX001 (ip), vehicle: other
[31] = dose: 200.0 mg/kg/injection, schedule: Q01DX001 (ip), vehicle: other
[32] = dose: 400.0 mg/kg/injection, schedule: Q01DX001 (ip), vehicle: other

Measured: T/C

CC(C)C/C=N\N=C(N)N
inactive: dose: 15.0 mg/kg/injection, schedule: Q01DX Z (ip), vehicle: saline 103 % of control | dose: 30.0 mg/kg/injection, schedule: Q01DX Z (ip), vehicle: saline 113 % of control | dose: 60.0 mg/kg/injection, schedule: Q01DX Z (ip), vehicle: saline 104 % of control and 90 % of control | dose: 60.0 mg/kg/injection, schedule: Q01DX Z (sc), vehicle: saline 117 % of control | dose: 120.0 mg/kg/injection, schedule: Q01DX Z (ip), vehicle: saline 103 % of control | dose: 120.0 mg/kg/injection, schedule: Q01DX Z (sc), vehicle: saline 110 % of control

CC(=O)N1C(CO)C(O)C(O)C1n1cnc2c(N)ncnc21 (configuration not stated)
inactive: [1] 106 % of control | [2] 96 % of control | [3] 96 % of control

CC1CN1P1(N2CC2C)=NP(N2CC2C)(N2CC2C)=NP(N2CC2C)(N2CC2C)=N1 (configuration not stated)
inactive: dose: 12.5 mg/kg/injection, schedule: Q01DX001 (ip), vehicle: saline 106 % of control | dose: 12.5 mg/kg/injection, schedule: Q04DX003 (ip), vehicle: saline 116 % of control | dose: 25.0 mg/kg/injection, schedule: Q01DX001 (ip), vehicle: saline 105 % of control | [4] 118 % of control | dose: 25.0 mg/kg/injection, schedule: Q04DX003 (ip), vehicle: saline 116 % of control | [5] 120 % of control | [6] 111 % of control | dose: 50.0 mg/kg/injection, schedule: Q04DX003 (ip), vehicle: saline 112 % of control | dose: 75.0 mg/kg/injection, schedule: Q04DX003 (ip), vehicle: acetone 120 % of control | [7] 106 % of control | dose: 170.0 mg/kg/injection, schedule: Q04DX003 (ip), vehicle: acetone 105 % of control | [2] 104 % of control

Cc1ccccc1C(c1ccccc1C)c1ccccc1C(=O)O
inactive: [8] 103 % of control | [9] 105 % of control | [10] 100 % of control | [11] 93 % of control | [12] 97 % of control | [13] 98 % of control

COC(=O)/C=C/N1C(=O)c2ccccc2C1=O
inactive: [14] 96 % of control | [15] 102 % of control | [16] 98 % of control | [17] 92 % of control | [18] 98 % of control | [19] 96 % of control

Cc1ccc(Oc2ccc([N+](=O)[O-])cc2[N+](=O)[O-])cc1C
inactive: dose: 222.0 mg/kg/injection, schedule: Q01DX Z (ip), vehicle: methylcellulose (MC) 90 % of control | dose: 333.0 mg/kg/injection, schedule: Q01DX Z (ip), vehicle: methylcellulose (MC) 92 % of control | dose: 500.0 mg/kg/injection, schedule: Q01DX Z (ip), vehicle: methylcellulose (MC) 92 % of control

O=C(Cl)C1CCC1C(=O)Cl (configuration not stated)
inactive: [20] 102 % of control | [21] 91 % of control

CC(C)(C)OC(=O)N1CCCC1C(=O)Oc1ccc([N+](=O)[O-])cc1 (configuration not stated)
inactive: dose: 25.0 mg/kg/injection, schedule: Q01DX009 (ip), vehicle: saline with Tween-80 102 % of control | dose: 50.0 mg/kg/injection, schedule: Q01DX009 (ip), vehicle: saline with Tween-80 88 % of control | [8] 93 % of control

C[N+](C)(C)CCS(=O)(=O)c1ccc(Cl)cc1
inactive: dose: 100.0 mg/kg/injection, schedule: Q04DX002 (ip), vehicle: saline 90 % of control

CN(C)C=C(S(C)(=O)=O)S(C)(=O)=O
inactive: [22] 97 % of control | [7] 101 % of control | [23] 97 % of control | [24] 109 % of control | [25] 101 % of control | [26] 98 % of control

C[n+]1ccccc1/C=C/c1ccnc2c(O)cccc12
inactive: [20] 107 % of control | [21] 102 % of control

CC(=O)OCC[N+](C)(C)CCCCC[N+](C)(C)CCOC(C)=O
inactive: [7] 100 % of control | [27] 95 % of control | [24] 113 % of control | [28] 102 % of control | [29] 88 % of control

CCCCCCCC/C=C\CCCCCCCC(=O)OCCCCCCCCCCCCCC
inactive: [14] 104 % of control | [16] 98 % of control | [18] 94 % of control

c1ccc(Cn2nnc(-c3ccccc3)n2)cc1
inactive: [27] 97 % of control | [28] 94 % of control | [29] 89 % of control

CCCNC(=O)C1C2C=CC(CC2)C1C(=O)NCCC (configuration not stated)
inactive: [9] 92 % of control | [11] 100 % of control | [13] 96 % of control

CC(C)CC(NC(=O)C(Cc1ccc(OCc2ccccc2)cc1)NC=O)C(=O)O (configuration not stated) (For-Tyr(Bn)-Leu-OH; configuration not given here)
inactive: [8] 98 % of control | [9] 97 % of control | [10] 98 % of control | [11] 97 % of control | [13] 92 % of control

CCCCCCCCCCCCCCCCOC(=O)Cl
inactive: [30] 98 % of control | [31] 90 % of control | [32] 106 % of control

O=C(O)c1c(F)cccc1F
inactive: dose: 25.0 mg/kg/injection, schedule: Q04DX003 (ip), vehicle: saline with Tween-80 91 % of control | dose: 50.0 mg/kg/injection, schedule: Q04DX003 (ip), vehicle: saline with Tween-80 91 % of control | [15] 95 % of control | [9] 88 % of control | [19] 88 % of control

NC(=O)Nc1cccc(C(=O)O)c1C(=O)O
inactive: [30] 101 % of control | dose: 100.0 mg/kg/injection, schedule: Q04DX003 (ip), vehicle: other 102 % of control | [31] 101 % of control | dose: 200.0 mg/kg/injection, schedule: Q04DX003 (ip), vehicle: other 98 % of control | [32] 107 % of control | dose: 400.0 mg/kg/injection, schedule: Q04DX003 (ip), vehicle: other 98 % of control

CSc1ccc(NC(=O)Nc2cc(C)cc(C)n2)cc1
inactive: [14] 94 % of control | [15] 98 % of control | [16] 94 % of control | [17] 103 % of control | [18] 87 % of control | [19] 98 % of control

CC12CCC(C(=O)CC1=O)C2(C)C (configuration not stated)
inactive: [7] 100 % of control | [24] 104 % of control | [26] 96 % of control

FC(F)(F)c1cccc(C(OCCN2CCCC2)c2ccccc2)c1 (configuration not stated)
inactive: dose: 6.25 mg/kg/injection, schedule: Q01DX009 (ip), vehicle: saline 92 % of control | dose: 12.5 mg/kg/injection, schedule: Q01DX009 (ip), vehicle: saline 95 % of control | [4] 110 % of control

O=C1OC(c2ccccc2)(c2ccccc2)c2cccc3cccc1c23
inactive: [8] 101 % of control | [10] 95 % of control | [12] 91 % of control

CC(C)(CC(=O)NNc1ccccc1)C(=O)O
inactive: [5] 97 % of control | [1] 102 % of control | [2] 100 % of control | [3] 102 % of control

CCOC(=O)C(CO)NS(=O)(=O)c1ccc(C)cc1 (configuration not stated)
inactive: dose: 75.0 mg/kg/injection, schedule: Q01DX001 (ip), vehicle: saline 103 % of control | [22] 102 % of control | dose: 150.0 mg/kg/injection, schedule: Q01DX001 (ip), vehicle: saline 106 % of control | [23] 103 % of control | dose: 300.0 mg/kg/injection, schedule: Q01DX001 (ip), vehicle: saline 103 % of control | [25] 97 % of control

CN(C)CCCNc1ccc(O)c2c1C(=O)c1ccccc1C2=O
inactive: [6] 100 % of control | [7] 95 % of control | [24] 106 % of control | [26] 105 % of control
